Test results reported in patent publication US20250325610A1, “Compositions Containing Cannabis and Hericium Extracts for the Improvement of Mental Health and Treatment of CNS Disorders” (DrinkBrez, LLC, priority 2024, published 2025).

System: theta power
Test: EEG study on theta power modulation by THC and Lion's Mane extract (randomized, double-blind, crossover)
Assay type: in vivo, human
Settings: for global theta power change: 16-node EEG, normalized theta power
Procedure: Participants: 10 healthy adults (18-45 years) in a randomized, double-blind, crossover trial.
Treatments: Baseline (placebo), Lion's Mane (2.2 g), THC (5 mg), THC+Lion's Mane.
Administration: Nanoemulsion beverages for rapid absorption.
EEG recordings: 16-node headset measured theta power at 0 min (baseline), 15 min, and 30 min.
Normalized theta power analyzed via mixed-effects ANOVA.
Topographic mapping for spatial changes.

## CCCCCc1cc(O)c2c(c1)OC(C)(C)[C@@H]1CCC(C)=C[C@@H]21 [THC, Δ9-tetrahydrocannabinol]
15 min after nanoemulsion beverage
  global theta power change: −8.9%
15 minutes
  theta power change, frontal nodes F3, F7 and FC5: −14.6%
30 min after nanoemulsion beverage
  global theta power change: 19.4%
30 minutes
  theta power change, frontal nodes: 33.2%
Nodes P3, P4, O1, O2
  theta power change, parietal (P3, P4) and occipital (O1, O2) nodes: 4-8%
